For eleven molecules, IC50 results are on record in patent US9499495B2, “Quinazolines and azaquinazolines as dual inhibitors of RAS/RAF/MEK/ERK and PI3K/AKT/PTEN/mTOR pathways” (Asana Biosciences, LLC, priority 2013, dated 2016).

One assay concerns the target T1, mTOR kinase (Homo sapiens, UniProt P42345).
T1 construct: purchased Millipore, US
Nature of the assay: mTOR kinase TR-FRET assay. Type of assay: biochemical. Put shortly: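 TR-FRET with ULight-p70 S6K (Thr 389) peptide (50 nM) and 20 μM ATP in 50 mM HEPES pH 7.5, 1 mM EGTA, 3 mM MnCl2; compound pre-incubated with enzyme before substrate addition, reaction at rt, EDTA-stopped. Eu anti-phospho antibody read 665/615 nm; IC50 from sigmoidal dose-response fit.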
In general terms: In TR-FRET formats the signal depends on donor and acceptor labels being close together.

In a further assay the test system is pS6RP in RKO cells. Description: In Cell Western (ICW) assay, pS6RP in RKO cells. The following applies: Homo sapiens, 3 h treatment. Type of assay: cell-based. The procedure:
(§1) Cell lines A375, A2058 and RKO obtained from the ATCC as provided above, were grown, and after attaining ˜80% confluency were trypsinized, centrifuged and resuspended in fresh media. The cells were seeded at the specified density (20,000 to 50,000) in a 96-well format black-well clear bottom plate (Corning) and incubated overnight at 37° C. in a 5% CO2 incubator. The next day, compound dilutions of test compounds were prepared in 100% DMSO followed by dilutions in respective media. Treatment of test compounds was performed for 3 h at 37° C. in 5% CO2 incubator. Following 3 h drug treatment, the conditional media was discarded and the cells were washed once with cPBS (PBS containing 0.1% magnesium chloride hexahydrate and 0.1% anhydrous calcium chloride) and fixed with 4% paraformaldehyde in cPBS for 1 h at rt. After fixing, the cells were given three washes using cPBST (cPBS containing 0.1% Triton™ X-100 reagent) and then blocked using blocking solution (5% skimmed milk powder or 5% BSA prepared in cPBST) for 2 h at rt with shaking at 300 rpm. The cells were again washed thrice with cPBST and incubated with primary antibody phospho-p44/42 MAPK(Erk1/2)(Thr202/204) antibody (Cell Signaling, Catalog # 9101L), phospho S6 ribosomal protein (Cell Signaling, Catalog #4858L), phospho AKT (Thr 308) (Cell Signaling, Catalog #9275) or phospho AKT (Ser 473) (Cell Signaling, Catalog #4060L) in specified dilutions (1:500-1:2500), prepared in respective blocking solutions, in a racker overnight at 4° C. The next day, the cells were washed with 1× Delfia® wash buffer (4×1 wash) and incubated with secondary antibody (Delfia®-Eu-N1 labeled anti-rabbit antibody; PerkinElmer, Catalog #AD0105; dilutions: 1:2000 to 1:6000 in Delfia® assay buffer (PerkinElmer, Catalog #1244-111)) for 2 h at rt in the dark at 300 rpm. The cells were then given four washes with 1× Delfia® wash buffer and incubated with Wallac Delfia® Enhancement solution (100 μL; PerkinElmer, Catalog #1244-105) for 20 min at rt in the dark at 300 rpm. The fluorescence emission was then read at 615 nm with an excitation wavelength of 340 nm using a Victor V5 Fluorometer (Perkin Elmer, US). The cells were then washed once with 1×cPBS and incubated with 100 μL of 0.5 mg/mL of Hoechst 33258 dye prepared in cPBS and read at 460 nm with 355 nm excitation, thereby evaluating the correction factor.
(§2) The % inhibition for the test compounds of formula (I) (new chemical entities (NCEs)) was calculated keeping DMSO control as 0% and the IC50 values were determined using sigmoidal dose response curve fit in GraphPad Prism® v5 software.

Another assay concerns A375 cells. Description: XTT assay for cell viability, A375 cells. Type of assay: cell-based. The following applies: Homo sapiens, A-375, 72 h. The procedure, abridged:
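GI50 derived by sigmoidal dose-response fitting of proliferation normalised to DMSO control (100%). Readout: A450 after 2-3 h with XTT (1 mg/ml)/PMS (25 μM), following 72 h compound treatment at 37° C., 5% CO2 of cells plated at 1000-2000 per well the previous day.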
For orientation: Tetrazolium dyes change colour on reduction, which living cells bring about.

In a further assay the test system is RKO cells. Description: XTT assay for cell viability, RKO cells. The following applies: Homo sapiens, 72 h. Type of assay: cell-based. Here is the method: Cell lines (A375 ATCC No. CRL-1619, A2058 ATCC No. CRL-11147 and RKO ATCC No. CRL-2577, American Type Culture Collection (ATCC), Manassas Va.) once attaining ˜80% confluency were trypsinized, centrifuged and resuspended in fresh media. Cells (1000-2000/per well) were seeded in 96-well plate and incubated over-night at 37° C. in a 5% CO2 incubator. Compound dilutions were prepared in 100% DMSO followed by dilutions in the respective media. The cells were treated with NCEs for 72 h at 37° C. in 5% CO2 incubator. After 72 h, freshly prepared XTT (1 mg/ml)/PMS (25 μM) solution was added, incubated for 2 to 3 h at 37° C. and the absorbance was measured at 450 nm using an ELISA plate reader. Keeping DMSO control as 100%, the effect of the compound to inhibit the cell proliferation was calculated and the GI50 values were determined using sigmoidal dose response curve fit in GraphPad Prism® v5 software.

The target of another assay is T2, B-RAFV600E (Homo sapiens, UniProt P15056, V600E).
T2 construct: purchased Millipore, USA 14-557
Nature of the assay: B-RAFV600E radiometric assay. Type of assay: biochemical. The following applies: read-out: Kinase assay B-Raf. The procedure, abridged:
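B-RAFV600E was preincubated 45 min at rt with compound in 1% DMSO. MEK-K97M (0.5 μg), 5 μM final cold ATP and [γ-32P]ATP were then added for 2 h at rt. Phosphorylated MEK was captured on P81 paper and scintillation-counted; IC50 came from a sigmoidal dose-response fit.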

A further assay concerns pERK in RKO cells. Nature of the assay: In Cell Western (ICW) assay, pERK in RKO cells. Type of assay: cell-based. The following applies: Homo sapiens, 3 h treatment. Here is the method: as §1, §2
The test system of a further assay is pERK in A375 cells. Description: In Cell Western (ICW) assay, pERK in A375 cells. Type of assay: cell-based. The following applies: Homo sapiens, A-375, 3 h treatment. The procedure, abridged:
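After a 3 h compound treatment at 37 °C, fixed RKO or A375 cells were probed for phospho-ERK1/2 (T202/Y204), phospho-S6RP or phospho-AKT T308 and detected with a Eu-tagged anti-rabbit antibody (ex 340/em 615 nm), with Hoechst signal as the cell-number correction. Inhibition was referenced to DMSO, and IC50 values came from sigmoidal dose-response curves.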

T1 sequence (P42345 1362-2549 limits assumed): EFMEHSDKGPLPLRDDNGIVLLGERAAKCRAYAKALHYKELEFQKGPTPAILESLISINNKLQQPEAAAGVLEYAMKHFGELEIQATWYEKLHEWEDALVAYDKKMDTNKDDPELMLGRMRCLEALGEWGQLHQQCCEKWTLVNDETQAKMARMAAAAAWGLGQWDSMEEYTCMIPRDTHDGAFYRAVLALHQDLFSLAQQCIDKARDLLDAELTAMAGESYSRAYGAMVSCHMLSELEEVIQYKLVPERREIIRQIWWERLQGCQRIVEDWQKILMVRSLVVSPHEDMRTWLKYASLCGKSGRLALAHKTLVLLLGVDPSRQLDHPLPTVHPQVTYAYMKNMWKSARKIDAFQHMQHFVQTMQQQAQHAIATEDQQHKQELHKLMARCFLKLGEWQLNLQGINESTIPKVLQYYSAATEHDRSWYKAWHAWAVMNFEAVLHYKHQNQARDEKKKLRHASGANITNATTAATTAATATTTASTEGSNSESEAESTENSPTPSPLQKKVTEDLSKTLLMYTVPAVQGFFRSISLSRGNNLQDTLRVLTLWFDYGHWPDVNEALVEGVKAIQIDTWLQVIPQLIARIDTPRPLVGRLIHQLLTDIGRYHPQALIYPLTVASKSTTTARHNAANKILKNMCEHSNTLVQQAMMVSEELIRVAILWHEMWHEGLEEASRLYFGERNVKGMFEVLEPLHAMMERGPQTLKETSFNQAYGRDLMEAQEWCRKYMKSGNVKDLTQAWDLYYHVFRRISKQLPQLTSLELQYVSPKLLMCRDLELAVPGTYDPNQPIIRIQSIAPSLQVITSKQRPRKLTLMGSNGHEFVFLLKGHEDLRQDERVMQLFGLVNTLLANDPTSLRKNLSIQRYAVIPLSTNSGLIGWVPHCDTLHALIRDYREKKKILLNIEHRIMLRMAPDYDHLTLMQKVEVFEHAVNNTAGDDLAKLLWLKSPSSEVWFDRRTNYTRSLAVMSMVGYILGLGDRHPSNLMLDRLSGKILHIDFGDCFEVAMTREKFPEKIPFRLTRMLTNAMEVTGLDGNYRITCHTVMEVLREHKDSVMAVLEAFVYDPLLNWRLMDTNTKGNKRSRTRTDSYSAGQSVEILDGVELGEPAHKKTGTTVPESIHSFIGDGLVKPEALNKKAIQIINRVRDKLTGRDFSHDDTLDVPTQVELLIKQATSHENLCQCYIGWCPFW
T2 sequence (P15056 416-766 V600E limits assumed): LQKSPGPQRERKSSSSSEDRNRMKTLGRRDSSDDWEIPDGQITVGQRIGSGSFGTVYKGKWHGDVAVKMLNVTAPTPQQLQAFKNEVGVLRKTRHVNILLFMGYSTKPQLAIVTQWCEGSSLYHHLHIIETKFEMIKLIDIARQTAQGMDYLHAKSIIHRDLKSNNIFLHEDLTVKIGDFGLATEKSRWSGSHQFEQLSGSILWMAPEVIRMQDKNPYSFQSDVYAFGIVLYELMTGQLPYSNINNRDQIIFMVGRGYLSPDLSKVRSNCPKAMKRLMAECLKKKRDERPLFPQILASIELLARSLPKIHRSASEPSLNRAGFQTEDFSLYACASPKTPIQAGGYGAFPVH

As to `Nc1ccc(-c2nc(N3CCOCC3)c3cc(-c4cccc(NS(=O)(=O)CCCF)c4F)cc(N4CCOCC4)c3n2)cn1` [Example 5, N-(3-(2-(6-aminopyridin-3-yl)-4,8-dimorpholinoquinazolin-6-yl)-2-fluorophenyl)-3-fluoropropane-1-sulfonamide], the IC50 at mTOR kinase is 1 to 100 nM; in the assay with pS6RP in RKO cells, 1 to 100 nM; in the assay on A375 cells it was 1 to 100 nM; with RKO cells it was 100 to 1000 nM; on B-RAFV600E it was 1 to 100 nM; in the assay on pERK in RKO cells, 1 to 100 nM. Besides, in the assay with pERK in A375 cells, the IC50 fell in the range of 1 to 100 nM.

For the molecule `COc1cc(-c2cccc(NS(=O)(=O)CCCF)c2F)cc2c(N3CCOCC3)nc(-c3ccc(N)nc3)nc12` [Example 30, N-(3-(2-(6-aminopyridin-3-yl)-8-methoxy-4-morpholinoquinazolin-6-yl)-2-fluorophenyl)-3-fluoropropane-1-sulfonamide], the IC50 is 100 to 1000 nM against mTOR kinase; 100 to 1000 nM in the assay with pS6RP in RKO cells; 100 to 1000 nM with A375 cells; 100 to 1000 nM in the assay on RKO cells; 1 to 100 nM at B-RAFV600E; 1 to 100 nM in the assay with pERK in RKO cells. The IC50 in the assay with pERK in A375 cells was in the range of 1 to 100 nM.

With `COc1cc(-c2cccc(NS(=O)(=O)CCCF)c2F)cc2c(N3CCOCC3)nc(-c3cnc4[nH]ccc4c3)nc12` [Example 40, 3-fluoro-N-(2-fluoro-3-(8-methoxy-4-morpholino-2-(1H-pyrrolo[2,3-b]pyridin-5-yl)quinazolin-6-yl)phenyl)propane-1-sulfonamide], the IC50 against mTOR kinase is 1 to 100 nM; with pS6RP in RKO cells, 100 to 1000 nM; with A375 cells, 100 to 1000 nM; on B-RAFV600E, 1 to 100 nM; in the assay on pERK in A375 cells, 1 to 100 nM.

As to `COc1cc(-c2cccc(NS(=O)(=O)CCCF)c2F)cc2c(N3CCOC[C@H]3C)nc(-c3ccc(N)nc3)nc12` [Example 42, (R)-N-(3-(2-(6-aminopyridin-3-yl)-8-methoxy-4-(3-methylmorpholino)quinazolin-6-yl)-2-fluorophenyl)-3-fluoropropane-1-sulfonamide], the IC50 at mTOR kinase was 1 to 100 nM; in the assay on pS6RP in RKO cells it was 100 to 1000 nM; in the assay with A375 cells, 1 to 100 nM; with RKO cells it was 100 to 1000 nM; at B-RAFV600E, 1 to 100 nM; in the assay with pERK in RKO cells it was 1 to 100 nM. Moreover, the IC50 in the assay on pERK in A375 cells is 1 to 100 nM.

Consider `CCOc1cc(-c2cccc(NS(=O)(=O)CCCF)c2F)cc2c(N3CCOCC3)nc(-c3ccc(N)nc3)nc12` [Example 52, N-(3-(2-(6-aminopyridin-3-yl)-8-ethoxy-4-morpholinoquinazolin-6-yl)-2-fluorophenyl)-3-fluoropropane-1-sulfonamide], for which the IC50 at mTOR kinase was in the range of 100 to 1000 nM; with pS6RP in RKO cells, 100 to 1000 nM; in the assay on A375 cells, 1 to 100 nM; in the assay on RKO cells it was 100 to 1000 nM; at B-RAFV600E it was 1 to 100 nM; in the assay on pERK in RKO cells, 1 to 100 nM. In addition, in the assay on pERK in A375 cells, the IC50 fell in the range of 1 to 100 nM.

In the case of `CC(C)Oc1cc(-c2cccc(NS(=O)(=O)CCCF)c2F)cc2c(N3CCOCC3)nc(-c3ccc(N)nc3)nc12` [Example 55, N-(3-(2-(6-aminopyridin-3-yl)-8-isopropoxy-4-morpholinoquinazolin-6-yl)-2-fluorophenyl)-3-fluoropropane-1-sulfonamide], the IC50 lay within 100 to 1000 nM at mTOR kinase; 100 to 1000 nM in the assay on pS6RP in RKO cells; 1 to 100 nM in the assay on A375 cells; 100 to 1000 nM in the assay on RKO cells; 1 to 100 nM on B-RAFV600E; 1 to 100 nM in the assay on pERK in RKO cells. Besides, in the assay with pERK in A375 cells, the IC50 lay within 1 to 100 nM.

For the molecule `CC(C)Oc1cc(-c2cccc(NS(=O)(=O)CCCF)c2F)cc2c(N3CCOC[C@H]3C)nc(-c3cnc(N)nc3)nc12` [Example 64, (R)-N-(3-(2-(2-aminopyrimidin-5-yl)-8-isopropoxy-4-(3-methylmorpholino)quinazolin-6-yl)-2-fluorophenyl)-3-fluoropropane-1-sulfonamide], the IC50 at mTOR kinase lay within 100 to 1000 nM; with pS6RP in RKO cells it was 100 to 1000 nM; in the assay with A375 cells, 1 to 100 nM; on B-RAFV600E, 1 to 100 nM; in the assay with pERK in A375 cells it was 1 to 100 nM.

Regarding `CCOc1cc(-c2cccc(NS(=O)(=O)CCCF)c2F)cc2c(N3CCOC[C@@H]3C)nc(-c3ccc(N)nc3)nc12` [Example 65, (S)-N-(3-(2-(6-aminopyridin-3-yl)-8-ethoxy-4-(3-methylmorpholino)quinazolin-6-yl)-2-fluorophenyl)-3-fluoropropane-1-sulfonamide], the IC50 against mTOR kinase lay in the range of 1 to 100 nM; with pS6RP in RKO cells, 100 to 1000 nM; with A375 cells, 100 to 1000 nM; in the assay on RKO cells, 100 to 1000 nM; on B-RAFV600E it was 1 to 100 nM; with pERK in A375 cells it was 1 to 100 nM.

For the molecule `COCCOc1cc(-c2cccc(NS(=O)(=O)CCCF)c2F)cc2c(N3CCOCC3)nc(-c3ccc(N)nc3)nc12` [Example 67, N-(3-(2-(6-aminopyridin-3-yl)-8-(2-methoxyethoxy)-4-morpholinoquinazolin-6-yl)-2-fluorophenyl)-3-fluoropropane-1-sulfonamide], the IC50 at mTOR kinase is 1 to 100 nM; with pS6RP in RKO cells, 100 to 1000 nM; in the assay on RKO cells it was 1 to 100 nM; at B-RAFV600E, 1 to 100 nM; in the assay with pERK in A375 cells, 100 to 1000 nM.

In the case of `COCCOc1cc(-c2cccc(NS(=O)(=O)CCCF)c2F)cc2c(N3CCOCC3)nc(-c3cnc(N)nc3)nc12` [Example 68, N-(3-(2-(2-aminopyrimidin-5-yl)-8-(2-methoxyethoxy)-4-morpholinoquinazolin-6-yl)-2-fluorophenyl)-3-fluoropropane-1-sulfonamide], the IC50 is 1 to 100 nM on mTOR kinase; 100 to 1000 nM in the assay on pS6RP in RKO cells; 100 to 1000 nM with RKO cells; 1 to 100 nM on B-RAFV600E; 1 to 100 nM in the assay with pERK in A375 cells.

Take `C[C@@H]1COCCN1c1nc(-c2cnc(N)cc2F)nc2ccc(-c3cccc(NS(=O)(=O)CCCF)c3F)nc12` [Example 140, (R)-N-(3-(2-(6-amino-4-fluoropyridin-3-yl)-4-(3-methylmorpholino)pyrido[3,2-d]pyrimidin-6-yl)-2-fluorophenyl)-3-fluoropropane-1-sulfonamide]: the IC50 at mTOR kinase fell in the range of 100 to 1000 nM; with A375 cells, 100 to 1000 nM; with RKO cells, 100 to 1000 nM; at B-RAFV600E, 1 to 100 nM; in the assay on pERK in RKO cells, 1 to 100 nM; in the assay on pERK in A375 cells it was 100 to 1000 nM.
